In patent US6927226B2, “Antidepressant azaheterocyclymethyl derivatives of 7,8-dihydro-3H-6,9-dioxa-1,3-diazacyclopenta[a]naphthalene” (Wyeth, priority 2001, dated 2005):
pIC50, pKi: −log10 of the molar value. Counter-ions that a name gives are not always drawn. Like-named read-outs stand apart in the source and are kept apart here.

Columns and labels:
[1] = molecular target: T1, cloned human 5-HT1A receptors (Homo sapiens, UniProt P08908); test: 35S-GTPγS binding assay, antagonist activity at 5-HT1A receptors; type: biochemical; details: reversal of the effects of the standard agonist 8-OHDPAT; for pIC50: membranes with cloned human 5-HT1A receptors, read-out: 5-HT1A Function IC50
T1 construct: expressed in transfected cells
T1 sequence (P08908 1-422): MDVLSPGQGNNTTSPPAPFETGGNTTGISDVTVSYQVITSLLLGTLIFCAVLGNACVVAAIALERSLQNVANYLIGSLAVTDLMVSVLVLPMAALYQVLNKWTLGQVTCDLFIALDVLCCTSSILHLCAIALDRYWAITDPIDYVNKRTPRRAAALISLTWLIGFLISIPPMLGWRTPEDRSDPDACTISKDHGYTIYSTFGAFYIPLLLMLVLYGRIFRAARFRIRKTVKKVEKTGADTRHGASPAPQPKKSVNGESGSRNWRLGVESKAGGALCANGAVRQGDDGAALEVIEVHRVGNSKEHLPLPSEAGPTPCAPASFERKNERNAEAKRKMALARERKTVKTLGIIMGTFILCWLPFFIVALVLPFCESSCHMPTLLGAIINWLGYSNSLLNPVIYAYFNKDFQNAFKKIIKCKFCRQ
Experimental: Antagonist activity at 5-HT1A receptors was established by using a ^35S-GTPγS binding assay similar to that used by Lazareno and Birdsall (Br. J. Pharmacol. 109: 1120, 1993), in which the test compound's ability to affect the binding of ^35S-GTPγS to membranes containing cloned human 5-HT1A receptors was determined. Agonists produce an increase in binding whereas antagonists produce no increase but rather reverse the effects of the standard agonist 8-OHDPAT. The test compound's maximum inhibitory effect is represented as the Imax, while its potency is defined by the IC50.

[2] = molecular target: T2, serotonin transporter (Rattus norvegicus, UniProt P31652); test: 3H-paroxetine displacement, affinity for the serotonin transporter; type: binding
T2 construct: displace ^3H-paroxetine from male rat frontal cortical membranes; from tissue; host or cells: male rat frontal cortex membranes

[3] = molecular target: T3, human 5-HT1A receptors (Homo sapiens, UniProt P08908); test: [3H] 8-OHDPAT displacement from the 5-HT1A receptor (transfected CHO cells); type: binding
T3 construct: expressed in transfected cells; host or cells: CHO cells, stably transfected
T3 sequence (P08908 1-422): T1 sequence (P08908 1-422)
Source text: High affinity for the serotonin 5-HT1A receptor was established by testing the claimed compound's ability to displace [^3H] 8-OHDPAT (dipropylaminotetralin) from the 5-HT1A serotonin receptor following a modification of the procedure of Hall et al., J. Neurochem. 44, 1685 (1985) which utilizes CHO cells stably transfected with human 5-HT1A receptors.

[4] = displacement of 3H-paroxetine, male rat frontal cortical membranes, read-out: 5-HT Transporter Affinity KI
[5] = displacement of [3H] 8-OHDPAT, CHO cells stably transfected with human 5-HT1A receptors, read-out: 5-HT1A Receptor Affinity KI

T2 sequence (P31652 whole entry): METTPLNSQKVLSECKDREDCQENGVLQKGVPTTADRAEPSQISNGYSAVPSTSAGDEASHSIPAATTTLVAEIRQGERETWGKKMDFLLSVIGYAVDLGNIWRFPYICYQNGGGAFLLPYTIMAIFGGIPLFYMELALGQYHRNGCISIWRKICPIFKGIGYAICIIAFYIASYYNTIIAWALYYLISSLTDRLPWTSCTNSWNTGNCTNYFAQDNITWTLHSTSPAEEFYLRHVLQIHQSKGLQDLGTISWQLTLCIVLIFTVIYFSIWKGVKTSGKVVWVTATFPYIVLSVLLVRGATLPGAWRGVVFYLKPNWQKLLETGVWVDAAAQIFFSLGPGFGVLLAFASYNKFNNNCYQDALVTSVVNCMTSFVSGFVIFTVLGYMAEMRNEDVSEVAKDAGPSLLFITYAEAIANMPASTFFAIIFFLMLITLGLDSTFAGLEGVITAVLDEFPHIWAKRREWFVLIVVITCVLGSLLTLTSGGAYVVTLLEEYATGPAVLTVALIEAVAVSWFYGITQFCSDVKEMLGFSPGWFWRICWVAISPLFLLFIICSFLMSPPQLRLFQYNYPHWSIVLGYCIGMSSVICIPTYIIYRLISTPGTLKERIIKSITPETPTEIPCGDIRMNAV

Structure (SMILES) | 5-HT1A Function (Imax), maximum inhibitory effect [1] | pIC50 [1] | pKi [2] | pKi [3] | melting point | pKi [2, 4] | pKi [3, 5]
FC(F)(F)c1nc2c3c(ccc2[nH]1)OCC(CN1CC=C(c2c[nH]c4ccccc24)CC1)O3 (stereo not drawn) [Example 2, 8-[4-(1H-Indol-3-yl)-3,6-dihydro-2H-pyridin-1-ylmethyl]-2-trifluoromethyl-7,8-dihydro-3H-6,9-dioxa-1,3-diaza-cyclopenta[a]naphthalene] | (82.5) | 7.54 | 8.98 | 8.75 |  |  | 
Fc1ccc2[nH]cc(C3=CCN(CC4COc5ccc6[nH]c(C(F)(F)F)nc6c5O4)CC3)c2c1 (stereo not drawn) [Example 1, 8-[4-(5-Fluoro-1H-indol-3-yl)-3,6-dihydro-2H-pyridin-1-ylmethyl]-2-trifluoromethyl-7,8-dihydro-3H-6,9-dioxa-1,3-diaza-cyclopenta[a]naphthalene] | (100) | 7.03 | 8.98 | 8.51 |  |  | 
CCc1nc2c3c(ccc2[nH]1)OCC(CN1CC=C(c2c[nH]c4ccccc24)CC1)O3 (stereo not drawn) [Example 6, 8-[4-(1H-Indol-3-yl)-3,6-dihydro-2H-pyridin-1-ylmethyl]-2-ethyl-7,8-dihydro-3H-6,9-dioxa-1,3-diaza-cyclopenta[a]naphthalene] | (35.0) | 7.44 | 9.38 | 8.87 |  |  | 
Cc1nc2c3c(ccc2[nH]1)OCC(CN1CC=C(c2c[nH]c4ccccc24)CC1)O3 (stereo not drawn) (as salt: fumarate) (hydrate or solvate) [Example 4, 8-[4-(1H-Indol-3-yl)-3,6-dihydro-2H-pyridin-1-ylmethyl]-2-methyl-7,8-dihydro-3H-6,9-dioxa-1,3-diaza-cyclopenta[a]naphthalene] |  |  |  |  | 219 to 222 °C |  | 
Cc1nc2ccc3c(c2n1C)OC(CN1CC=C(c2c[nH]c4ccccc24)CC1)CO3 (stereo not drawn) [Example 5, 8-[4-(1H-Indol-3-yl)-3,6-dihydro-2H-pyridin-1-ylmethyl]-1,2-dimethyl-7,8-dihydro-3H-6,9-dioxa-1,3-diaza-cyclopenta[a]naphthalene] | (100) | 5.19 |  |  |  | 8.70 | 7.28
Fc1cccc2c(C3=CCN(CC4COc5ccc6[nH]c(C(F)(F)F)nc6c5O4)CC3)c[nH]c12 (stereo not drawn) (as salt: fumarate) [Example 7, 8-[4-(7-Fluoro-1H-indol-3-yl)-3,6-dihydro-2H-pyridin-1-ylmethyl]-2-trifluoromethyl-7,8-dihydro-3H-6,9-dioxa-1,3-diaza-cyclopenta[a]naphthalene] |  |  |  |  | 239 to 240 °C |  | 
Fc1cccc2c(C3=CCN(CC4COc5ccc6[nH]c(C(F)(F)F)nc6c5O4)CC3)c[nH]c12 (stereo not drawn) [Example 7, 8-[4-(7-Fluoro-1H-indol-3-yl)-3,6-dihydro-2H-pyridin-1-ylmethyl]-2-trifluoromethyl-7,8-dihydro-3H-6,9-dioxa-1,3-diaza-cyclopenta[a]naphthalene] | (89.1) | 7.56 | 9.16 | 9.09 |  |  | 
FC(F)(F)c1nc2c3c(ccc2[nH]1)OCC(CN1CC=C(c2c[nH]c4ccccc24)CC1)O3 (stereo not drawn) (as salt: fumarate) [Example 2, 8-[4-(1H-Indol-3-yl)-3,6-dihydro-2H-pyridin-1-ylmethyl]-2-trifluoromethyl-7,8-dihydro-3H-6,9-dioxa-1,3-diaza-cyclopenta[a]naphthalene] |  |  |  |  | 231 to 233 °C |  | 
FC(F)(F)C(F)(F)c1nc2c3c(ccc2[nH]1)OCC(CN1CC=C(c2c[nH]c4ccccc24)CC1)O3 (stereo not drawn) [Example 8, 8-[4-(1H-Indol-3-yl)-3,6-dihydro-2H-pyridin-1-ylmethyl]-2-pentafluoroethyl-7,8-dihydro-3H-6,9-dioxa-1,3-diaza-cyclopenta[a]naphthalene] | (91.1) | 7.36 |  |  |  | 8.90 | 8.73
Cc1nc2c3c(ccc2[nH]1)OCC(CN1CC=C(c2c[nH]c4ccccc24)CC1)O3 (stereo not drawn) [Example 4, 8-[4-(1H-Indol-3-yl)-3,6-dihydro-2H-pyridin-1-ylmethyl]-2-methyl-7,8-dihydro-3H-6,9-dioxa-1,3-diaza-cyclopenta[a]naphthalene] | (100) | 8.00 | 9.39 | 8.80 |  |  | 
Fc1ccc2c(C3=CCN(CC4COc5ccc6[nH]c(C(F)(F)F)nc6c5O4)CC3)c[nH]c2c1 (stereo not drawn) [Example 3, 8-[4-(6-Fluoro-1H-indol-3-yl)-3,6-dihydro-2H-pyridin-1-ylmethyl]-2-trifluoromethyl-7,8-dihydro-3H-6,9-dioxa-1,3-diaza-cyclopenta[a]naphthalene] | (66.5) | 7.66 | 8.95 | 8.57 |  |  | 
Fc1ccc2[nH]cc(C3=CCN(CC4COc5ccc6[nH]c(C(F)(F)F)nc6c5O4)CC3)c2c1 (stereo not drawn) (as salt: fumarate) [Example 1, 8-[4-(5-Fluoro-1H-indol-3-yl)-3,6-dihydro-2H-pyridin-1-ylmethyl]-2-trifluoromethyl-7,8-dihydro-3H-6,9-dioxa-1,3-diaza-cyclopenta[a]naphthalene] |  |  |  |  | 236 to 238 °C |  | 
Fc1ccc2c(C3=CCN(CC4COc5ccc6[nH]c(C(F)(F)F)nc6c5O4)CC3)c[nH]c2c1 (stereo not drawn) (as salt: fumarate) (hydrate or solvate) [Example 3, 8-[4-(6-Fluoro-1H-indol-3-yl)-3,6-dihydro-2H-pyridin-1-ylmethyl]-2-trifluoromethyl-7,8-dihydro-3H-6,9-dioxa-1,3-diaza-cyclopenta[a]naphthalene] |  |  |  |  | 215 to 220 °C |  | 
FC(F)(F)C(F)(F)c1nc2c3c(ccc2[nH]1)OCC(CN1CC=C(c2c[nH]c4ccccc24)CC1)O3 (stereo not drawn) (as salt: fumarate) [Example 8, 8-[4-(1H-Indol-3-yl)-3,6-dihydro-2H-pyridin-1-ylmethyl]-2-pentafluoroethyl-7,8-dihydro-3H-6,9-dioxa-1,3-diaza-cyclopenta[a]naphthalene] |  |  |  |  | 238 to 239 °C |  | 
CCc1nc2c3c(ccc2[nH]1)OCC(CN1CC=C(c2c[nH]c4ccccc24)CC1)O3 (stereo not drawn) (as salt: fumarate) [Example 6, 8-[4-(1H-Indol-3-yl)-3,6-dihydro-2H-pyridin-1-ylmethyl]-2-ethyl-7,8-dihydro-3H-6,9-dioxa-1,3-diaza-cyclopenta[a]naphthalene] |  |  |  |  | 231 to 232 °C |  | 
